Source: the Deep4Chem optical property database
Several values for one entry are separate records, joined by “and”; a condition that tells them apart may be missing. Equal entries are not always repeated.

Assay: solvent given as SMILES

## CCCCCCCCCCCCOc1cc2c3cc(OCCCCCCCCCCCC)c(OCCCCCCCCCCCC)cc3c3c(cc(OCCCCCCCCCCCC)c4nc5cc(C#Cc6ccc(OCCC(C)CCCC(C)C)cc6)c(C#Cc6ccc(OCCC(C)CCCC(C)C)cc6)cc5nc43)c2cc1OCCCCCCCCCCCC (centres undefined)
In ClC(Cl)Cl
  emission maximum: 660 nm

## N#Cc1c(N2CCCCC2)cc(-c2ccc3ccccc3c2)c2c1-c1ccccc1C2
In C1CCOC1
  emission maximum: 462 nm

## COc1ccc2c(c1)N(c1ccc(C)cc1)c1cc3c(cc1=N2)Oc1c(cc(C(C)(C)C)cc1C(C)(C)C)N=3
In CC#N
  emission maximum: 625 nm
In CCCCCC
  emission maximum: 586 nm
In CO
  emission maximum: 635 nm

## COc1ccccc1-c1nc2c3ccccc3c3ccccc3c2n1-c1ccc(C)cc1
In Cc1ccccc1
  emission maximum: 371 nm

## CCCCCCCCCCOc1cc(OCCCCCCCCCC)cc(C2=C3C(/C=C/c4ccc(OC)cc4)=CC(/C=C/c4ccc(OC)cc4)=[N+]3[B-](F)(F)n3c(/C=C/c4ccc(OC)cc4)cc(C=Cc4ccc(OC)cc4)c32)c1
In ClC(Cl)Cl
  emission maximum: 710 nm

## O=C(O)c1ccc(C2=C(/C=C/c3[se]c4ccccc4[n+]3CCCCS(=O)(=O)[O-])CCC/C2=C\C=C2/[Se]c3ccccc3N2CCCCS(=O)(=O)[O-])cc1
In CO
  emission maximum: 813 nm

## O=S1(=O)C2=C(c3ccccc31)C1(C3=C(c4ccccc41)S(=O)(=O)c1ccccc13)c1ccccc12
In ClCCl
  emission maximum: 444 nm

## N#Cc1c(N2CCCCC2)cc(-c2cccc3ccccc23)c2c1CCc1ccccc1-2
In C1CCOC1
  emission maximum: 465 nm

## CCCc1cc2c(s1)-c1cc3c(cc1NB2c1ccccc1)-c1sc(CCC)cc1B(c1ccccc1)N3
In ClCCl
  emission maximum: 418 nm

## CN(C)c1ccc(/C=C/c2nc(/C=C/c3ccc(N(C)C)cc3)c3ccccc3n2)cc1
In C1CCCCC1
  emission maximum: 503 nm
In C1CCOC1
  emission maximum: 540 nm
In CC#N
  emission maximum: 570 nm
In CS(C)=O
  emission maximum: 580 nm
In ClCCl
  emission maximum: 545 nm

## CCN(CC)c1ccc(-c2ccc(-c3nc(N4CCOCC4)c4ccccc4n3)s2)cc1
In CC#N
  emission maximum: 544 nm
In Cc1ccccc1
  emission maximum: 476 nm

## CCCCn1c(-c2ccc(-c3nnc(-c4ccc5ccccc5c4)o3)cc2)nc(-c2ccccc2)c1-c1ccccc1
In ClCCl
  emission maximum: 445 nm

## CCCCN1/C(=C/C=C/C2=[N+](C)c3ccccc3C2(C)C)C(C)(C)c2ccccc21
In CS(C)=O
  emission maximum: 565 nm

## Cc1cc2c(o1)=CC1=C(C(F)(F)F)c3cc4oc(C)cc4n3[B-](F)(F)[N+]=21
In ClC(Cl)Cl
  emission maximum: 620 nm

## N#CC(C#N)=Cc1ccc(-c2ccc(N(c3ccccc3)c3ccccc3)cc2)cc1
In ClC(Cl)Cl
  emission maximum: 634 nm

## CC(=O)O[B-]1(OC(C)=O)OC(/C=C/c2ccc(C)cc2)=CC(/C=C/c2ccc(C)cc2)=[O+]1
In C1CCOC1
  emission maximum: 484 nm
In CC#N
  emission maximum: 493 nm
In CC(C)=O
  emission maximum: 489 nm
In CS(C)=O
  emission maximum: 499 nm
In Cc1ccccc1
  emission maximum: 481 nm
In ClC(Cl)Cl
  emission maximum: 491 nm
In ClCCl
  emission maximum: 492 nm

## N#Cc1ccc(-c2pc3ccccc3s2)cc1 (centres undefined)
In CC#N
  emission maximum: 433 nm

## CCCCC1(c2ccccc2)Nc2c(-c3ccc(N(c4ccccc4)c4ccccc4)cc3)ccc(-c3ccc(N(c4ccccc4)c4ccccc4)cc3)c2N=C1c1ccccc1 (centres undefined)
In C1CCOC1
  emission maximum: 554 nm
In CC#N
  emission maximum: 567 nm
In CCCCCC
  emission maximum: 521 nm
In CN(C)C=O
  emission maximum: 578 nm
In Cc1ccccc1
  emission maximum: 533 nm
In ClC(Cl)Cl
  emission maximum: 547 nm

## c1ccc2c(c1)c1ccccc1n2-c1ccc(-c2nnc(-c3ccc(-n4c5ccccc5c5ccccc54)cc3)o2)cc1
In Cc1ccccc1
  emission maximum: 386 nm
In O=P(c1ccccc1)(c1ccccc1)c1ccccc1Oc1ccccc1P(=O)(c1ccccc1)c1ccccc1
  emission maximum: 414 nm

## CC/[NH+]=c1\cc2oc3cc(NCCC(=O)NCC(=O)OC)c4ccccc4c3nc-2cc1C
In CCO
  emission maximum: 644 nm
In O
  emission maximum: 652 nm

## CC1(C)C(/C=C/c2cc3ccc(O)cc3oc2=O)=[N+](CCCS(=O)(=O)[O-])c2ccccc21
In CCO
  emission maximum: 642 nm
In CS(C)=O
  emission maximum: 649 nm
In O
  emission maximum: 620 nm

## CC(C)(C)c1ccc2ccc3c(C(C)(C)C)ccc4ccc1c2c43
In CCCCCC
  emission maximum: 379 nm
In CO
  emission maximum: 379 nm
In ClCCl
  emission maximum: 380 nm

## CC(=O)c1c(N[C@H](C(=O)O)C(C)C)c2ccc(N(C)C)cc2oc1=O
In ClCCl
  emission maximum: 446 nm

## CCCCC1(c2ccccc2)Nc2c(-c3ccc(N(C)c4ccccc4)cc3)ccc(-c3ccc(N(C)c4ccccc4)cc3)c2N=C1c1ccccc1 (centres undefined)
In C1CCOC1
  emission maximum: 580 nm
In CC#N
  emission maximum: 602 nm
In CCCCCC
  emission maximum: 553 nm
In CN(C)C=O
  emission maximum: 603 nm
In Cc1ccccc1
  emission maximum: 573 nm
In ClC(Cl)Cl
  emission maximum: 589 nm

## Cc1c2ccc3c(C)[n+](C)ccc3c2cc[n+]1C
In CC#N
  emission maximum: 408 nm

## COc1cccc2cc(C)c3c4ccccc4n(C)c3c12
In ClCCl
  emission maximum: 380 nm

## O=c1oc2c(ccc3ccccc32)nc1-c1ccccc1
In CC#N
  emission maximum: 490 nm
In CCCCCC
  emission maximum: 459 nm
In CO
  emission maximum: 511 nm
In c1ccccc1
  emission maximum: 478 nm and 468 nm

## Cc1ccc2ccc3c(C)ccc4ccc1c2c43
In CCCCCC
  emission maximum: 380 nm
In CO
  emission maximum: 381 nm
In ClCCl
  emission maximum: 382 nm

## COc1ccc(N(c2ccc(OC)cc2)c2ccc(-c3ccc(C=C(C#N)C#N)o3)cc2)cc1
In ClC(Cl)Cl
  emission maximum: 696 nm

## CCn1c(-c2ccc(-c3ccc4c(c3)C3(c5ccccc5-c5ccccc53)c3ccccc3-4)cc2)c(-c2ccc3ccccc3c2)c(-c2ccc3ccccc3c2)c1-c1ccc(-c2ccc3c(c2)C2(c4ccccc4-c4ccccc42)c2ccccc2-3)cc1
In CCOC(C)=O
  emission maximum: 441 nm

## CCCCCCc1ccc(/C=C/c2ccc(CCCCCC)s2)s1
In Cc1ccccc1
  emission maximum: 416 nm

## COc1ccc(-c2nc(-c3cc(Cl)sc3C)c(-c3cc(Cl)sc3C)[nH]2)cc1
In CC#N
  emission maximum: 489 nm

## COC(=O)c1[nH]c(-c2ccc(OC)cc2)c2nnc3ccc(OC)cc3c12
In ClCCl
  emission maximum: 504 nm

## CC(C)[Si](C#Cc1c2cc3ccccc3cc2c(C#C[Si](C(C)C)(C(C)C)C(C)C)c2nc3c(ccc4cc5ccccc5cc43)nc12)(C(C)C)C(C)C
In CCCCCC
  emission maximum: 654 nm

## CCCCc1cc(CCCC)c2ccc3c(CCCC)cc(CCCC)c4ccc1c2c43
In CCCCCC
  emission maximum: 388 nm
In CO
  emission maximum: 388 nm
In ClCCl
  emission maximum: 389 nm

## C(=C\c1cccc2ccccc12)/c1ncc(-c2ccccc2)o1
In ClCCl
  emission maximum: 440 nm

## CC1=C(Br)C(C)=[N+]2C1=C(c1c(-c3ccccn3)nc3ccccn13)c1c(C)c(Br)c(C)n1[B-]2(F)F
In ClCCl
  emission maximum: 571 nm

## COc1ccc2c3c(c4ccc(OC)cc4c2c1)C(C)(C)c1ccccc1-3
In C1CCCCC1
  emission maximum: 391 nm

## CCN(CC)c1ccc(C2=C3C(C)=CC(/C=C/c4ccc(OCCCN=[N+]=[N-])cc4)=[N+]3[B-](F)(F)n3c(C)cc(C)c32)cc1
In CO
  emission maximum: 587 nm

## CC(C)(C)c1ccc2c(c1)c1cc(C(C)(C)C)ccc1n2-c1cc(N2c3ccccc3C(c3ccccc3)(c3ccccc3)c3ccccc32)cc(-n2c3ccc(C(C)(C)C)cc3c3cc(C(C)(C)C)ccc32)c1C#N
In Cc1ccccc1
  emission maximum: 458 nm

## Cc1ccc(C(=O)/C=C2\C(=O)Nc3ccccc32)cc1C
In C1CCCCC1
  emission maximum: 387 nm
In C1COCCO1
  emission maximum: 397 nm
In CC#N
  emission maximum: 413 nm
In CC(C)(C)O
  emission maximum: 400 nm
In CC(C)O
  emission maximum: 403 nm
In CCCCCC
  emission maximum: 387 nm
In CCCCO
  emission maximum: 401 nm
In CCOC(C)=O
  emission maximum: 395 nm
In CN(C)C=O
  emission maximum: 417 nm
In CO
  emission maximum: 399 nm
In ClCCl
  emission maximum: 418 nm
In O
  emission maximum: 409 nm

## C(S/C=C/c1ccc(-c2ccc(/C=C/SC=C3CCCCC3)cc2)cc1)=C1CCCCC1
In ClCCl
  emission maximum: 433 nm
